Results: ChEMBL document CHEMBL1123104, “Enzyme-activated irreversible inhibitors of monoamine oxidase: phenylallylamine structure-activity relationships” (J Med Chem, 1985)
pIC50: −log10 of the molar value.

Molecular target: T1, Monoamine oxidase (Rattus norvegicus, UniProt P19643+P21396)
T1 sequence (P19643 whole entry): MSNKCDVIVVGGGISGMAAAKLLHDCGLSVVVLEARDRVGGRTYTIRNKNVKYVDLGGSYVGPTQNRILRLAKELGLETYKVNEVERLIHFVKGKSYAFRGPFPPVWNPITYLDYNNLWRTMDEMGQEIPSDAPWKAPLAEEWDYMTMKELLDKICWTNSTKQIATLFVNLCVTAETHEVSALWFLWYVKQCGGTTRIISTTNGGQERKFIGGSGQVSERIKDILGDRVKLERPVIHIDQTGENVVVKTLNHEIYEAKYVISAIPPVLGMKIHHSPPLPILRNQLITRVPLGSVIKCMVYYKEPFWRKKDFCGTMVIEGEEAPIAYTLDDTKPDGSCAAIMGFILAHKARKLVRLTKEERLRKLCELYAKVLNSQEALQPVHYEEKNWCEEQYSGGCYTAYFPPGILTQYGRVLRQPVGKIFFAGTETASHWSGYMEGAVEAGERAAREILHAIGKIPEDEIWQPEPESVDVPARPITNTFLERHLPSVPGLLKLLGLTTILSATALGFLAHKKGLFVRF
T1 sequence (P21396 whole entry): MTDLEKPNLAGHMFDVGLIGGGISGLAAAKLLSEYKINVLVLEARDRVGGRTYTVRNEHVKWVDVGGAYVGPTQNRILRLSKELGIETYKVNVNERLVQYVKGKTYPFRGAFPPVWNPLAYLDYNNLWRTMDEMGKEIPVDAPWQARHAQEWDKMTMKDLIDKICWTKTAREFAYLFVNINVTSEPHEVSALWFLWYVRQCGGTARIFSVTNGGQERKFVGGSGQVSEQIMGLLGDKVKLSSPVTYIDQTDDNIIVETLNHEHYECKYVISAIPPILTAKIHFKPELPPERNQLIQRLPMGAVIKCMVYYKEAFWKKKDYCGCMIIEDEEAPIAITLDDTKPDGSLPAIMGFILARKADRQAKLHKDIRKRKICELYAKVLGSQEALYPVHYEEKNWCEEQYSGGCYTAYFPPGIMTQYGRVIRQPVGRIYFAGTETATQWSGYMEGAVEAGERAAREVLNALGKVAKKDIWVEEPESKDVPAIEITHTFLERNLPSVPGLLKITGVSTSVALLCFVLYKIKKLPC
Assay: Inhibitory activity against rat brain mitochondrial Monoamine oxidase

SMILES | IC50 [nM] | pIC50
Cl.NC/C(=C/F)c1cccc(C(F)(F)F)c1 | 7 | –
Cl.NC/C(=C/F)c1ccc(Cl)cc1 | 20 | –
Cl.NCC(=C(F)F)c1ccccc1 | 10000 | –
C=CCN [ALLYLAMINE] | 500000 | –
Cl.NCC(=C(Br)Br)c1ccccc1 | 500000 | –
Cl.NC/C(=C/Br)c1ccccc1 | 40000 | –
Cl.NC/C(=C/F)c1ccc(O)c(O)c1 | 100 | –
Cl.NC/C(=C/Cl)c1ccccc1 | 100000 | –
Cl.NC/C(=C\Cl)c1ccccc1 | 500000 | –
C=C(CN)c1ccccc1.Cl | 400000 | –

Further lines, results first:

IC50 [nM] | pIC50 | SMILES
– | 7.60 | COc1ccc(/C(=C\F)CN)cc1OC.Cl
– | 7.60 | COc1ccccc1/C(=C\F)CN.Cl
150 | – | Cl.NC/C(=C\F)c1ccccc1
18 | – | Cl.NC/C(=C/F)c1ccccc1
10 | – | Cc1ccc(/C(=C\F)CN)cc1.Cl
5 | – | COc1cccc(/C(=C\F)CN)c1.Cl
50 | – | Cl.NC/C(=C/F)c1cccc(O)c1
